The values that follow come from ChEMBL document CHEMBL3580570, “Discovery and SAR study of a sulfonamide hydroxamic acid inhibitor for the botulinum neurotoxin serotype A light chain” (Medchemcomm, 2014).

pIC50, pKi: −log10 of the molar value.

Botulinum neurotoxin type A, sequence (P0DPI0 2-448 limits assumed): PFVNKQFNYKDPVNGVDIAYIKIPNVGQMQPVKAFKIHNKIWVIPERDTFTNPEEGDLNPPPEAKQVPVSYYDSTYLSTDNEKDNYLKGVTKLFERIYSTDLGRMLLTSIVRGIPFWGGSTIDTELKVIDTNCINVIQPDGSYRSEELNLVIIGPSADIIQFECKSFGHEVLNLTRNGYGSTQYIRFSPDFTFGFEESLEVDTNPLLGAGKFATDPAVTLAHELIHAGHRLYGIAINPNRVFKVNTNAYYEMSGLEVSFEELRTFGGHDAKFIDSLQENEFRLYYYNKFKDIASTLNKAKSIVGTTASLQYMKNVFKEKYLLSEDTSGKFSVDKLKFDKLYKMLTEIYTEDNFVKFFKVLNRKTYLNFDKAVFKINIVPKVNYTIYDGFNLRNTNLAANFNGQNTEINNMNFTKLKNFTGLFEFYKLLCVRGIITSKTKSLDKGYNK

The test has as its target Botulinum neurotoxin type A (Clostridium botulinum, UniProt P0DPI0). Kind of test: Competitive inhibition of Clostridium botulinum BoNT/A LC using SNAPtide as substrate after 10 mins by FRET assay.
As a reminder, the pKi is the Ki on a negative log10 scale, so that one unit is a factor of ten. Read a high pKi as a small Ki. In turn, `O=C(NO)[C@@H]1C[C@@H](Oc2ccc(Cl)cc2)CN1S(=O)(=O)c1ccc(Cl)cc1` gave a pKi of 5.20.
For orientation: pIC50 means −log10 of the IC50, conventionally taken in molar units. Low values mean a high IC50, high ones a low IC50. With `CC[C@H](C)[C@H](NS(=O)(=O)c1ccc(-c2ccc(F)cc2)cc1)C(=O)NO`, the pIC50 is 5.02.
Compound `CC[C@H](C)[C@H](NS(=O)(=O)c1ccc(-c2ccc(NC(C)=O)cc2)cc1)C(=O)NO` gave a pIC50 of less than 4.00.
Same read-out and setting: the figure for `CC[C@H](C)[C@H](NS(=O)(=O)c1ccc(-c2ccc(OC)cc2)cc1)C(=O)NO` is less than 4.00; for `CC[C@H](C)[C@H](NS(=O)(=O)c1ccc(-c2ccccc2)cc1)C(=O)NO` it is 4.56; for `CC[C@H](C)[C@H](NS(=O)(=O)c1cccc(-c2ccc(Cl)cc2)c1)C(=O)NO` it is 5.09.
On the same count and under the same terms, the figure for `CC[C@H](C)[C@H](NS(=O)(=O)c1ccc2c(c1)OCCO2)C(=O)NO` is 4.68; for `CC[C@H](C)[C@H](NS(=O)(=O)c1ccccc1)C(=O)NO` it is less than 4.00.
On the same count and under the same terms, to `CC[C@H](C)[C@@H](NS(=O)(=O)c1ccc(-c2ccc(Cl)cc2)cc1)C(=O)NO` belongs 4.93; to `CC[C@@H](C)[C@H](NS(=O)(=O)c1ccc(-c2ccc(Cl)cc2)cc1)C(=O)NO`, 4.38; to `CC[C@@H](C)[C@@H](NS(=O)(=O)c1ccc(-c2ccc(Cl)cc2)cc1)C(=O)NO`, 5.16.
Take `CC(C)C[C@@H](NS(=O)(=O)c1ccc(-c2ccc(Cl)cc2)cc1)C(=O)NO`: the pIC50 was 4.59.
The same measure, in the same setting: the figure for `CC(C)C[C@H](NS(=O)(=O)c1ccc(-c2ccc(Cl)cc2)cc1)C(=O)NO` is 4.61; for `CC(C)[C@H](NS(=O)(=O)c1ccc(-c2ccc(Cl)cc2)cc1)C(=O)NO` it is 4.42.
The same measure, in the same setting: the figure for `O=C(NO)[C@H](Cc1ccccc1)NS(=O)(=O)c1ccc(-c2ccc(Cl)cc2)cc1` is less than 4.00; for `O=C(NO)[C@@H]1CCCN1S(=O)(=O)c1ccc(-c2ccc(Cl)cc2)cc1` it is less than 4.00; for `CC[C@H](C)[C@H](NS(=O)(=O)c1ccc(-c2ccc(Cl)cc2)cc1)C(=O)O` it is less than 4.00.
Same read-out and setting: to `CC[C@H](C)[C@H](NS(=O)(=O)c1ccc(-c2ccc(Cl)cc2)cc1)C(N)=O` belongs less than 4.00; to `CC[C@H](C)[C@H](NS(=O)(=O)c1ccc(-c2ccc(Cl)cc2)cc1)C(=O)NO`, 5.00; to `CC[C@H](C)[C@H](NS(=O)(=O)c1ccc(-c2ccc(C)cc2)cc1)C(=O)NO`, less than 4.00.
Take `CC[C@@H](C)[C@@H](NS(=O)(=O)c1cccc(-c2ccc(Cl)cc2)c1)C(=O)NO`: the negative-log IC50 (pIC50) was 6.02.
